Measured values from US10413583B2, “Synthetic substrates for enzymes that catalyze reactions of modified cysteines and related methods” (The University of Chicago, priority 2016, dated 2019).

Key:
[1] = Water solubility of probes (stated in words); type: physicochemical
HEK293T cells = test: Live cell fluorescence imaging and flow cytometry of DPP-2 and DPP-3 in HEK293T cells; type: cell-based, human; details: 1 μM DPP-2 for 15 min, microscopy or flow cytometry
Method: HEK293T (650,000 cells per dish) cells were plated with 1.5 mL of Dulbecco's Modified Eagle Medium (DMEM) (High Glucose, 10% fetal bovine serum (FBS)) in a 35 mm glass bottom dish (D35-10-1.5-N; Cellvis, Mountain View, Calif., United States of America) 24 hrs prior to imaging. 30 min before the addition of the DPP probe, the cell culture media was removed and cells were washed with 1 mL of Delbecco's phosphate-buffered saline (DPBS). The media was then replaced with 1 mL of DMEM containing 1 μM Hoechst 33342 and either 0.1% DMSO carrier as a control, 1 or 2 μM Palm B, 0.1, 1.0, or 5 μM ML348, and incubated for 30 min at 37° C. and 5% CO2. The media was removed, the cells were washed with 1 mL of Live Cell Imaging Solution (Thermo Fisher Scientific, Waltham, Mass., United States of America), and 1 mL of 1 μM DPP-2 or DPP-3 in Live Cell Imaging Solution was added to each plate. For ML348 0.1, 1.0, or 5 μM was added along with DPP-2 or DPP-3. After incubation for 15 min at 37° C. and 5% CO2, images were obtained on an inverted epi-fluorescence microscope (Olympus IX83; Olympus Corporation, Tokyo, Japan) attached with EMCCD camera (Photometrics EVOLVE™ Delta; Photometrics, Tucson, Ariz., United States of America) with 40× oil objective (N/A 1.3) for DPP-2 (excitation filter 500/20, dichroic chroma 89007, emission filter 535/30, exposure time 200 ms, EM gain 25), Hoechst 33342: (excitation filter 402/15, emission filter 455/50, dichroic chroma 89013, exposure time 30 ms, EM gain 25), and brightfield (exposure time 5 ms, EM gain 5), and for DPP-3 (exposure time 500 ms, EM gain 150), Hoechst 33342: (exposure time 30 ms, EM gain 25), and brightfield (exposure time 20 ms, EM gain 5). Analyses were performed in ImageJ. For data analysis, the average fluorescence intensity per image in each experimental condition was obtained by selecting regions of interest (ROIs) in the brightfield image. For display, the data were normalized to the average fluorescence intensity of the control conditions. Each experiment was repeated at least three separate times with identical results.
Cells were plated on a 10 cm dish with 10 mL of DMEM/High Glucose (10% FBS, 1% P/S, L-Glutamine, Sodium pyruvate) 36-48 hours prior to the day of experiment and maintained at 37° C., 5% CO2 so as to obtain 80-90% confluency. Cells were washed with DPBS and trypsinized with 1 mL 0.05% Trypsin. 5 mL of DMEM/High Glucose (10% FBS, L-Glutamine, Sodium pyruvate) was added and cells were spun down at 1200 rpm for 3 min. Media was discarded and cells were resuspended in 5 mL of Live Cell Imaging Solution and again spun down at 1200 rpm for 3 min. The cells pellets obtained were resuspended in 3-5 mL of Live Cell Imaging Solution and divided into 500 μL aliquots. The aliquots were treated with either 0.2% DMSO carrier or 1 μM of PalmB/ML348 or 1 μM/5 μM of ML349 inhibitor. After 30 min of incubation at room temperature, 1 μL of 2.5 mM DPP-3 in DMSO was added to each aliquot for a final concentration of 5 μM, and the solutions were mixed. After 5 min incubation at room temperature, fluorescence signal in FITC channel was measured for 10000 cells (5000 for HeLa experiments) on a LSR-Fortessa 4-15 HTS (BD digital instrument, 488 nm laser with 530/30 nm filter for FITC; BD, Franklin Lakes, N.J., United States of America). For analyzing DPP2 in HEK293T cells, the aliquots were treated with either 0.2% DMSO carrier or 2 μM of PalmB, 5 or 20 μM of ML348/ML349 and then analyzed by the protocol as mentioned above. Data was analyzed by FlowJo software version 10.0.8. For comparison of A431 starved versus non-starved, parallel 10 cm dishes of A431 cells were plated in 10 mL of DMEM (high glucose, 10% FBS, 1% P/S), and grown for 36 h. The growth media was removed, and replaced by 10 mL of either DMEM (High glucose) with 10% FBS to maintain “growth” conditions, or DMEM (High glucose) without FBS respectively for “starvation” conditions, and incubated for 14 h. […]

APT1 = target: T1, APT1 (Homo sapiens, UniProt O75608); test: In vitro kinetic assay and emission spectra of DPP-1, DPP-2, DPP-3 with purified APT1 (with detergent); type: biochemical
T1 construct: His-tag; made in house; host or cells: E. coli ROSETTA DE3
Method: (§1) 50 μL of 7.5 μM DPP1-3 in HEPES (20 mM, pH=7.4, 150 mM NaCl, 0.1% Triton X-100) were added to a 384-well black flat bottom plate (Corning Life Sciences, Corning, N.Y., United States of America) and placed in an Infinite M200 Pro (Tecan, Mannedorf, Switzerland) plate reader at 37° C. for 5 min to warm. 25 μL of either 4-(2-hydroxyethyl)-1-piperazineethanesulfonic acid (HEPES) buffer alone or HEPES buffer containing 150 nM APT1 or APT2, was added using a multi-channel pipette, resulting in a final concentration of 5 μM DPP1-3 and 50 nM APT1 or APT2. Fluorescence intensities (λex 490/9 nm, λem 545/20 nm, Gain 70, No. of flashes 25, Integration time 100 μs and Z-position 20000 μm) were measured at 30 second (s) time intervals for 20 min. At the end of 20 min kinetic run, emission spectra were obtained (λex 485 nm, Aem510-700 nm, Gain 100, No. of flashes 25, Integration time 100 μs and Z-position 20,000 μm).

APT2 = target: T2, APT2 (Homo sapiens, UniProt O95372); test: In vitro kinetic assay and emission spectra of DPP-1, DPP-2, DPP-3 with purified APT2 (with detergent); type: biochemical
T2 construct: His-tag; made in house; host or cells: E. coli ROSETTA DE3
Method: as §1

T1 sequence (O75608 whole entry): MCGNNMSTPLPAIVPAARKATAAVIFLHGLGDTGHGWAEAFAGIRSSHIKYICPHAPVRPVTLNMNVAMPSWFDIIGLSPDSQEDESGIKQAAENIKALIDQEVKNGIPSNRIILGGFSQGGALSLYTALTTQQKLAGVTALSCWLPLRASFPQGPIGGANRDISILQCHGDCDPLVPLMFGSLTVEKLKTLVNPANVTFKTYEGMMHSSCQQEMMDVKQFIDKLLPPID
T2 sequence (O95372 whole entry): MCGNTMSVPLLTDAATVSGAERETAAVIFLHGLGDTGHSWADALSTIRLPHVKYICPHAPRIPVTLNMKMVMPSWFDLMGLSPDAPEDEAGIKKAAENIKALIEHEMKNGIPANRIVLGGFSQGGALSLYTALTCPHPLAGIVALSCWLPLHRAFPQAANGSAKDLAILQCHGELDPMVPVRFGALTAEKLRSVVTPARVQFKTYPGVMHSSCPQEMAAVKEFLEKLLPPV

## CCCCCCCC(=O)SC[C@@H](C(=O)NC)N(C)C(=O)Oc1ccc2c(c1)Oc1cc(N(C)C)ccc1C21OC(=O)c2ccccc21 (some centres unmarked) [DPP-2]
[1]
  water solubility: water soluble
HEK293T cells
  probe fluorescent signal in live cells: robust intracellular fluorescent signal
APT1; 5 μM probe, 50 nM APT1, 20 min
  enhancement in fluorescence signal: 200 fold
APT1; purified APT1
  performance as substrate / reaction kinetics: slightly better than DPP-1
APT2
  performance as substrate: slightly better than DPP-1
